Measured values: PMC8552062, “Contributions of UDP-Glucuronosyltransferases to Human Hepatic and Intestinal Metabolism of Ticagrelor and Inhibition of UGTs and Cytochrome P450 Enzymes by Ticagrelor and its Glucuronidated Metabolite” (Frontiers in Pharmacology, 2021)

Assays:
Assay type in all cases: in vitro ADME
UGT1A3 = target: T1, UGT1A3 (Homo sapiens, UniProt P35503); assay: UGT1A3 inhibition in HLM (chenodeoxycholic acid glucuronidation); design: tissue XenoTech LLC; host or cells: pooled human liver microsomes; details: for IC50: UGT1A3, chenodeoxycholic acid 24-acyl-β-D-glucuronide formation in HLM
T1 sequence (P35503 29-534): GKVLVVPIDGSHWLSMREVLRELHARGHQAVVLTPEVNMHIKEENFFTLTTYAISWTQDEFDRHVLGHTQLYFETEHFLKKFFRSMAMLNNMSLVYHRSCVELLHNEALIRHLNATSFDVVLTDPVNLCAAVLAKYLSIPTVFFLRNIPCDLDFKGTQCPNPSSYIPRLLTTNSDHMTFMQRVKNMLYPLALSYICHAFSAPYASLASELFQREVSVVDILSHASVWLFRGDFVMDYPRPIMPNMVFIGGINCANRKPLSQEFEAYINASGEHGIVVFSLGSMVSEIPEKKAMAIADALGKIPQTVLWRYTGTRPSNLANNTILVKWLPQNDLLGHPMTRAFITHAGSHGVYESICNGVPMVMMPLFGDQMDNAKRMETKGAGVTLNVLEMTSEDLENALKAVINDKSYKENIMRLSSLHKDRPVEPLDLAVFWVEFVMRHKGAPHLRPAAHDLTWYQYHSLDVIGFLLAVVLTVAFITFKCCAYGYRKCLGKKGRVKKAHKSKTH
Protocol: (§1) To assess drug-drug interactions (DDIs) potential caused by ticagrelor and ticagrelor-O-Glu through the inhibition of the major human UGTs enzymes, selective UGT probe substrates were co-incubated with ticagrelor or ticagrelor-O-Glu in HLM. The formation of metabolites, SN-38 glucuronide, chenodeoxycholic acid 24-acyl-β-D-glucuronide, trifluoperazine N-glucuronide, N-Acetyl serotonin glucuronide, mycophenolic acid glucuronide and 3′-azide-3′-deoxythymidine β-D-glucuronide, which could reflect the enzyme activities of UGT1A1, UGT1A3, UGT1A4, UGT1A6, UGT1A9 and UGT2B7, respectively, were quantified using LC-MS/MS. Three different concentrations of ticagrelor or ticagrelor-O-Glu (1, 10 and 100 μM) were added to the incubation system in the presence of selective UGT probe substrates (SN-38, chenodeoxycholic acid, trifluoperazine, N-Acetyl serotonin, mycophenolic acid and 3′-azide-3′-deoxythymidine), respectively. The assays were performed as described above. The control was treated with a vehicle solvent only. A triple determination was performed.
(§2) The percent inhibition relative to the control was calculated to indicate the UGTs or CYPs inhibition. For inhibition exceeding 50% of the control activity, nonlinear regression analysis was used to estimate the IC50 values using the GraphPad Prism 6 (GraphPad Software Inc., CA, United States).

UGT1A4 = target: T2, UGT1A4 (Homo sapiens, UniProt P22310); assay: UGT1A4 inhibition in HLM (trifluoperazine N-glucuronidation); design: tissue XenoTech LLC; host or cells: pooled human liver microsomes; details: for inhibitory effect on UGT1A4: HLM, 1, 10 and 100 μM; for IC50: UGT1A4, trifluoperazine N-glucuronide formation in HLM
T2 sequence (P22310 29-534): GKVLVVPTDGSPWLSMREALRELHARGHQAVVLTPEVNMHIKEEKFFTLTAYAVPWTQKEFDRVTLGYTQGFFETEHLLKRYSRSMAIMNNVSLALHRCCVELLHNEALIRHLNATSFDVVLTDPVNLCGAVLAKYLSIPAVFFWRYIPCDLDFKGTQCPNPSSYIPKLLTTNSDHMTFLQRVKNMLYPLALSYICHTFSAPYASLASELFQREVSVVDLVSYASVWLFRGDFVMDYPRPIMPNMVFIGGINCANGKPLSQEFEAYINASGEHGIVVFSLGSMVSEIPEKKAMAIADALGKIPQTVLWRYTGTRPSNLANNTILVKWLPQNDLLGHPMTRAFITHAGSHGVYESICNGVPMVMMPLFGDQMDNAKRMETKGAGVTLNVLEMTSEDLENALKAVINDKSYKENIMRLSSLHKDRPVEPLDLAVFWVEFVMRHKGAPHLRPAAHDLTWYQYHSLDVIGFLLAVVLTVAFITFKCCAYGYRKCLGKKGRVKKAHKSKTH
Protocol: as §1, §2

[1] = tested on: human intestinal microsomes (HIM); assay: Ticagrelor glucuronidation kinetics in pooled HIM
Protocol: (§3) Ticagrelor glucuronidation was investigated in an in vitro incubation system by using HLM, HIM, and recombinant human UGTs. The incubation system consisted of enzyme sources (HLM, HIM, or human recombinant UGTs), various concentrations of ticagrelor (dissolved in 50% methanol, 1% v/v, 1, 2, 5, 10, 20, 50, 100, 200, 500 μM of final concentration), alamethicin (50 μg/mg protein), 5 mM MgCl2, 100 mM tris-HCL buffer (pH 7.4), and 5 mM UDPGA in a total volume of 100 μl. Alamethicin is a pore-forming polypeptide used to activate UGTs in HLM and HIM ([Fisher et al., 2000]). Preliminary studies were conducted to determine the optimal protein concentrations and incubation times. Linear conditions of ticagrelor-O-Glu formation from ticagrelor, i.e., HLM, 0.2 mg of protein/ml and 60 min, HIM, 0.2 mg of protein/ml and 60 min, and recombinant human UGTs, 0.2 mg of protein/ml and 60 min were selected. The incubation mixture without UDPGA was placed on ice for 15 min to activate UGT by alamethicin. After pre-incubation for 5 min at 37°C, the reactions were started by the addition of UDPGA. After another 60 min of incubation at 37°C, the reaction was terminated by adding 100 μl of acetonitrile containing internal standard (diazepam). The mixture vortexed for 2 min and then centrifuged at 14,000 rpm for 10 min at 4°C. The resulting supernatant was injected into a liquid chromatography tandem mass spectrometry (LC-MS/MS, Applied Biosystems/MDS Sciex, Foster City, CA) system for the detection of ticagrelor-O-Glu.
Kinetic analyses were performed using the mean values of triplicate determinations with either pooled HLM, HIM, or recombinant human UGTs. All data were analyzed by nonlinear regression analysis using the GraphPad Prism 6 (GraphPad Software Inc., CA, United States). Michaelis-Menten kinetics (Eq. 1) or substrate inhibition kinetics (Eq. 2) ([Houston and Kenworthy, 2000]) were tested to determine the optimal model for describing the data. […] Intrinsic clearance (CLint) was calculated by dividing Vmax by Km.

UGT1A8 = target: T3, UGT1A8 (Homo sapiens, UniProt Q9HAW9); assay: Ticagrelor glucuronidation by recombinant human UGT1A8; details: recombinant human UGT1A8, pH 7.4
T3 construct: purchased BD Gentest; host or cells: baculovirus-infected insect cells
Protocol: as §3, with “After pre-incubation for 5 min at 37°C, the reactions were started by the addition of UDPGA. After another 60 min of incubation at 37°C, the reaction was terminated by adding 100 μl of acetonitrile containing internal standard (diazepam). The mixture vortexed for 2 min and then centrifuged at 14,000 rpm for 10 min at 4°C. The resulting supernatant was injected into a liquid chromatography tandem mass spectrometry (LC-MS/MS, Applied Biosystems/MDS Sciex, Foster City, CA) system for the detection of ticagrelor-O-Glu.” left out
(§4) Kinetic analyses were performed using the mean values of triplicate determinations with either pooled HLM, HIM, or recombinant human UGTs. All data were analyzed by nonlinear regression analysis using the GraphPad Prism 6 (GraphPad Software Inc., CA, United States). […] Intrinsic clearance (CLint) was calculated by dividing Vmax by Km.

UGT1A7 = target: T4, UGT1A7 (Homo sapiens, UniProt Q9HAW7); assay: Ticagrelor glucuronidation by recombinant human UGT1A7; details: recombinant human UGT1A7, pH 7.4
T4 construct: purchased BD Gentest; host or cells: baculovirus-infected insect cells
Protocol: as §3, with “After pre-incubation for 5 min at 37°C, the reactions were started by the addition of UDPGA. After another 60 min of incubation at 37°C, the reaction was terminated by adding 100 μl of acetonitrile containing internal standard (diazepam). The mixture vortexed for 2 min and then centrifuged at 14,000 rpm for 10 min at 4°C. The resulting supernatant was injected into a liquid chromatography tandem mass spectrometry (LC-MS/MS, Applied Biosystems/MDS Sciex, Foster City, CA) system for the detection of ticagrelor-O-Glu.” left out
as §4

T4 sequence (Q9HAW7 26-530): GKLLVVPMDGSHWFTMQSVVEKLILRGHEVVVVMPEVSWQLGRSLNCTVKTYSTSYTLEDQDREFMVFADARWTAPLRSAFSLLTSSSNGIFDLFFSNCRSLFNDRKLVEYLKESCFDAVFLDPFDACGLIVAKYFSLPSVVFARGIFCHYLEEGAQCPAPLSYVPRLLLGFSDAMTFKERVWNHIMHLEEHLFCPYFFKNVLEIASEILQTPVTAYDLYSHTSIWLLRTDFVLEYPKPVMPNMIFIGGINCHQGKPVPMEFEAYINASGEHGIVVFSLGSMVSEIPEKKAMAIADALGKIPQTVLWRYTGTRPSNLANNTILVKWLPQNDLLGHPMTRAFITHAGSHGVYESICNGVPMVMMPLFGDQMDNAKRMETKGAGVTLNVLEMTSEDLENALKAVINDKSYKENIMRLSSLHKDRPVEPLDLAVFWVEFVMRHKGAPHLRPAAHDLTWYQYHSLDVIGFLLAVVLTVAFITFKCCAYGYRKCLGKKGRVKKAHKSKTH
T3 sequence (Q9HAW9 26-530): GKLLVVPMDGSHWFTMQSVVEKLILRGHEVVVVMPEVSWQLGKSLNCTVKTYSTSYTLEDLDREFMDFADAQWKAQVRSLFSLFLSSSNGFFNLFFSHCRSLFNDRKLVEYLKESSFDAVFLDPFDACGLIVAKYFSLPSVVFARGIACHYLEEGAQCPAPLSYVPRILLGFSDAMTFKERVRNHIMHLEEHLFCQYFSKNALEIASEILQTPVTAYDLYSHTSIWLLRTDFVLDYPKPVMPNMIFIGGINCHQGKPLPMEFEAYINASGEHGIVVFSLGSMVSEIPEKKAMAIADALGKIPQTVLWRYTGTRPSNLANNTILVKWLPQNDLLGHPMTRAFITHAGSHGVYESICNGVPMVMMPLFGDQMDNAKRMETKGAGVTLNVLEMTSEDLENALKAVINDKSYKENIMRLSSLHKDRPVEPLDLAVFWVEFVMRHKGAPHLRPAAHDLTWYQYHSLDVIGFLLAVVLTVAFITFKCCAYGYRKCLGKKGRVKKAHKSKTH

## CCCSc1nc(N[C@@H]2C[C@H]2c2ccc(F)c(F)c2)c2nnn([C@@H]3C[C@H](OCCO[C@@H]4O[C@H](C(=O)O)[C@@H](O)[C@H](O)[C@H]4O)[C@@H](O)[C@H]3O)c2n1 [Ticagrelor-O-Glu, ticagrelor-O-glucuronide]
UGT1A3; HLM, concentration up to 100 μM
  inhibitory effect on UGT1A3: no significant inhibitory effects
UGT1A3
  IC50: > 100 µM
UGT1A4
  inhibitory effect on UGT1A4: no significant inhibitory effects
  IC50: > 100 µM

## CCCSc1nc(N[C@@H]2C[C@H]2c2ccc(F)c(F)c2)c2nnn([C@@H]3C[C@H](OCCO)[C@@H](O)[C@H]3O)c2n1 [Ticagrelor]
[1]; pooled HIM
  Ksi: 292.9 µM
  Vmax: 0.90 pmol·min^−1·mg protein^−1
[1]; pooled HIM 0.2 mg protein/ml, 60 min, substrate inhibition kinetics
  Km: 2.52 µM
UGT1A8
  microsomal CLint: 0.01 µL/min/mg
UGT1A3
  IC50: > 100 µM
UGT1A3; human, human liver microsomes (HLM), probe chenodeoxycholic acid, HLM, 100 μM test compound
  inhibition at 100 µM: 24.5%
UGT1A7
  microsomal CLint: 0.07 µL/min/mg
UGT1A4
  inhibitory effect on UGT1A4: No significant inhibitory effect
  IC50: > 100 µM
